Read-outs that look alike come from different tables or passages of the source.
Tests used:
Cryptosporidium parvum = experiment: qRT-PCR assay of the growth of C. parvum in vitro in HCT-8 host cells (primary and secondary screening, EC50); type: cell-based; conditions: for % Inhibition (3.3 uM): secondary screening at 3.3 uM
[1] = primary screening at 10 uM, from Hs18S ΔCT
[2] = primary screening at 10 uM, treated vs control

Compound	Inhibition (%) (Cryptosporidium parvum; primary screening at 10 uM)	Cytotoxicity (%) (HCT-8 host cells (Hs18S); [1])	Hs18S ΔCT (HCT-8 host cells (Hs18S); [2])	Cytotoxicity (%) (HCT-8 host cells (Hs18S); 10 µM)	Inhibition (%) (Cryptosporidium parvum; 10 µM)	Hs18S ΔCT (HCT-8 host cells (Hs18S))	% Inhibition (3.3 uM) (Cryptosporidium parvum)
CC1(C)C2CC(=O)[C@]3(C)C(CC[C@@]4(C)[C@H](c5ccoc5)OC(=O)[C@H]5O[C@]543)[C@@]2(C)C(=O)C[C@H]1O (some centres unmarked) [1,7-DIDEACETOXY-1,7-DIOXO-3-DEACETYLKHIVORIN]	26.84%	-6.9%	-0.10	–	–	–	–
OMEGA-3-ACID ESTERS (EPA shown)	4.36%	–	–	-17.4%	–	–	–
O=C(O)[C@@H]1CCCN1 [PROLINE (L)]	–	–	–	1.9	-22.72	0.03	–
C/C1=C\CC/C(C)=C/CC(C)(C)/C=C/C1	-30.91%	0.1%	0.00	–	–	–	–
CC(C)(O)[C@@H]1CC[C@](C)([C@H]2[C@@H](O)C[C@@]3(C)[C@@H]4C[C@H](O[C@@H]5O[C@H](CO)[C@@H](O)[C@H](O)[C@H]5O)[C@H]5C(C)(C)[C@@H](O[C@@H]6OC[C@@H](O)[C@H](O)[C@H]6O)CC[C@@]56C[C@@]46CC[C@]23C)O1 [ASTRAGALOSIDE IV]	-18.98%	-14.1%	-0.19	–	–	–	–
NCCc1ccc(O)c(O)c1 [3-HYDROXYTYRAMINE]	–	–	–	41.1	–	0.76	6%
C=C1CCC(C2CC(=O)OC2=O)C(=O)CCC2C1CC2(C)C (centres unmarked)	23.70%	-6.8%	-0.09	–	–	–	–
COc1ccc(/C=C/c2cc(O)cc(O[C@@H]3O[C@H](CO)[C@@H](O)[C@H](O)[C@H]3O)c2)cc1 [PICEID METHYL ETHER]	15.82%	30.3%	0.52	–	–	–	–
C[C@H](CCC(=O)O)[C@H]1CC[C@H]2[C@@H]3C[C@H](O)[C@@H]4C[C@H](O)CC[C@]4(C)[C@H]3CC[C@]12C [alpha-HYDROXYDEOXYCHOLIC ACID]	-6.93%	-43.0%	-0.52	–	–	–	–
COc1ccc(-c2cc(=O)c3c(O)c(OC)c(OC)c(OC)c3o2)cc1OC [DEMETHYLNOBILETIN]	91.41%	-4.6%	-0.06	–	–	–	29%
CN1CCC[C@H]1c1cccnc1.O=C(O)C(O)C(O)C(=O)O.O=C(O)C(O)C(O)C(=O)O [NICOTINE BITARTRATE]	36.71%	-43.3%	-0.52	–	–	–	–
CCNC(=O)CC[C@H](N)C(=O)[O-].[K+] [THEANINE POTASSIUM]	-54.47%	-36.3%	-0.45	–	–	–	–
CC1=CC(=O)[C@H]2C(C)(C)CCC[C@]2(C)[C@@]1(O)CCc1ccoc1 [SOLIDAGENONE]	-14.64%	39.6%	0.73	–	–	–	–
COc1ccc2c(=O)c(-c3ccc(O)cc3)coc2c1 [ISOFORMONONETIN]	-7.36%	-21.7%	-0.28	–	–	–	–
SPIRAMYCIN	-12.26%	–	–	-12.2%	–	–	–
O=c1cc(-c2ccccc2)oc2cccc(O)c12 [PRIMULETIN]	-14.55%	3.1%	0.05	–	–	–	–
C[C@@H]1[C@H](O)[C@@H](C)/C=C/C=C/CC/C=C/C=C/C=C/C=C/C(O[C@H]2O[C@H](C)[C@@H](O)[C@H](N)[C@@H]2O)CC2O[C@](O)(CC(O)C(O)CCC(O)CC(O)CC(O)CC(=O)O[C@H]1C)CC(O)C2C(=O)O (some centres unmarked) [NYSTATIN]	34.97%	51.7%	1.05	–	–	–	–
OC[C@@H](O)C(O)[C@H](O)CO [ARABITOL]	8.73%	-2.6%	-0.04	–	–	–	–
CC(=O)O[C@H]1C[C@@H](OC(C)=O)C(C)(C)[C@@H]2C[C@@H](OC(C)=O)[C@@]3(C)C4=CC(=O)O[C@@H](c5ccoc5)[C@]4(C)CC[C@@H]3[C@@]12C [DEOXYKHIVORIN]	27.34%	7.7%	0.11	–	–	–	–
